# Measured values taken from patent US6465527B1, “Iodinated hydrocarbon pesticide” (priority 1999, dated 2002).
# Read-outs that look alike come from different tables or passages of the source.
# What was measured:
# [1] = test system: German cockroach, Blattella germanica (L.); test: Fumigant toxicity in sealed glass jar, German cockroach; assay type: in vivo; conditions: Blattella germanica, inhaled or nasal, 30-60 adult males
# Protocol: (§1) As shown below, Table 1 depicts the toxicity of both monoiodinated and diiodinated hydrocarbons to both the German and the American cockroach after 1 hour of exposure.
# (§2) Shown in Table 2 is the toxicity of both monoiodinated and diiodinated hydrocarbons to the German and American cockroach and the Cowpea weevil after 24 hours of exposure.
# (§3) In this experiment both the insecticidal and nematicidal properties of iodinated hydrocarbons were compared. In determining the insecticidal properties of the iodinated hydrocarbons, both American (Periplaneta americana) and German (Blattella germanica) cockroaches were used. Groups of cockroaches were confined in 0.95-liter glass jars with a small cotton ball. Exactly 50 μl of a test chemical was applied to the cotton ball and the jar was sealed. Knockdown, defined as the inability to walk in a coordinated manner, and mortality were assessed every 15 minutes for the first hour and hourly thereafter for 8 hours and again after 24 hours.
# [2] = test system: American cockroach, Periplaneta americana (L.); test: Fumigant toxicity in sealed glass jar, American cockroach; assay type: in vivo; conditions: Periplaneta americana, inhaled or nasal, 8-36 adult males
# Protocol: as §1, §2, §3
# [3] = test system: crabgrass [Digitaria sanguinalis], purple nutsedge [Cyperus rotundus], Jimson weed [Datura stramonium] and a variety of other weed species; test: Greenhouse herbicide test in weed-infested potted soil (Experiment 6, FIG. 6); assay type: in vivo; conditions: up to 20 mg per kg of soil; one week
# Protocol: Illustrated in FIGS. 6 and 7 are the herbicidal properties of the present invention. In FIG. 6, 1,3-diiodopropane and 1,4-diiodobutane were added to a soil sample contained in a pot, wherein the number of weeds were counted at the end of a one week period. The top row of the “x” axis plots the amount in milligrams of iodinated hydrocarbon added per kilogram of soil. The two rows below the top row depict the number of weeds found after a week, which is also plotted on the “y” axis. […] It is inferred that greater dosages would eliminate an even greater number of weeds. FIG. 7 depicts similar results except that the weed controlled was only one variety: crabgrass. […] It is also inferred that dosages larger than 20 mg of iodinated hydrocarbons would further eliminate an even greater number of crabgrass plants.
# (§4) For each chemical, an aqueous emulsion with 0.2% [w/w] of the compound was prepared and was applied to soil at rates of 2, 4, 6, 8, 10, and 12 mgs a.i./Kg soil. The treated soil was mixed and transferred to 1L capacity 10-cm diameter cylindrical pots. Pots with untreated soil [control] and with treated soil were placed on a greenhouse bench in a randomized complete block design. Each treatment was represented by 14 replications [pots], one half of which were left uncovered, and the other 7 were covered with polyethylene plastic bags [approx. 1 mil thickness] retained with a rubber around the pots. Soil samples for nematological analysis [salad bowl incubation technique] were collected 7-10 days after application of the materials. […] In covered pots, applications of the material were particularly effective resulting in 100% kill with the 10 and 12 mg rates. All dosages of C3 and C4 eliminated the nematode in covered pots. […] In a greenhouse experiment of similar design to the nematicide experiments, the C3 and C4 emulsions were applied at rates of 2-20 mgs a.i./Kg soil to a soil infested with crabgrass [Digitaria sanguinalis], purple nutsedge [Cyperus rotundus], Jimson weed [Datura stramonium] and a variety of other weed species. All pots were covered, and the number of weeds were counted 7, 14 and 30 days after application of the chemicals.
# [4] = test system: German cockroach, Blattella germanica (L.); test: Fumigant toxicity in sealed glass jar, German cockroach; conditions: in vivo
# [5] = test system: reniform nematode [Rotylenchulus reniformis]; test: Greenhouse nematicide test in cotton field soil, covered and uncovered pots (Experiment 6, FIGS. 1-4); assay type: in vivo; conditions: for Control of the nematode in soil: covered and uncovered, all rates up to 12 mg per kg of soil
# Excerpt: FIGS. 2 and 3 illustrate the effectiveness of the diiodoethane and diiodopropane in eliminating the nematode (Rotylenchulus reniformis) from a soil sample. The “x” axis on the top row illustrates the quantity of iodinated hydrocarbon in milligrams per kilogram of soil. The next two rows below the “x” axis indicate the number of nematodes per 100 milliliters of soil, which is also indicated on the “y” axis. In FIG. 2, 1,2-diiodoethane was applied to the soil both in a covered state and an uncovered state. […] This is believed to be so because of the volatility of 1,2 diiodoethane, wherein the cover slows down the rate at which the compound evaporates into the atmosphere.
# In this experiment, the pesticidal and herbicidal properties of volatile, low molecular weight, iodinated hydrocarbons were investigated. The relative nematicidal efficacy of iodomethane [C1], 1,2-diiodoethane [C2], 1,3-diiodopropane [C3] and 1,4-diiodobutane [C4] was studied in greenhouse experiments with soil from a cotton field infested with the reniform nematode [Rotylenchulus reniformis]. The chemicals were obtained from Aldrich, Milwaukee, U.S.A. Emulsifiable concentrates of the compounds were prepared by dilution in acetone containing an emulsogen.
# as §4
# [6] = test system: Meloidogyne arenaria; test: Greenhouse nematicide test, diiodinated C2-C8 hydrocarbons in infested field soil (Experiments 1 and 2); assay type: in vivo; conditions: rates ≧5.0 mg
# Protocol: (§5) Additionally, the nematicidal properties of iodinated hydrocarbons were investigated in greenhouse experiments with field soil infested with Meloidogyne arenaria and Heterodera Glycines. Chemicals were added directly to infested solid at rates <100 mg/Kg soil. Treated soil was kept moist (approximately 60 percent field capacity) and uncovered for 7-10 days when samples were collected, and the pots were planted with ‘Brim’ soybean, Glycine max. […] 1,2-diiodoethane (C2), 1,3-diiodopropane (C3), 1,4-diiodobutane (C4), 1,5-diiodopentane (C5), 1,6-diiodohexane (C6), and […] were applied to soil rates of 2.5, 5.0, 7.5, and 10 mg/Kg soil. All rates of C2 and C8 were ineffective in reducing M. arenaria juvenile (J2) populations in preplant samples. This was also true for C2 and J2 populations of H. glycines; however, […] rates ≧5.0 mg suppressed J2 populations of H. glycines. […] H. glycines J2 numbers in final soil samples were generally inversely related to rates for C3-C8. […] Applications of C3-C6 to soil increased shoot weights in a manner directly related to dosages but only in a curvilinear pattern.
# (§6) In this experiment, the nematicidal properties of various diiodinated hydrocarbons were compared. The nematicidal properties of diiodinated C2-C8 normal hydrocarbons was assessed in a greenhouse experiment with field soil infested with Meloidogyne arenaria [Ma] and Heterodera glycines [Hg]. 1,2-diiodoethane [C2], 1,3-diiodopropane [C3], 1,4-diiodobutane [C4], 1.5-diiodopentane [C5], 1,6-diiodohexane [C6] and 1,8-diiodooctane [C8] were applied to soil at rates of 2.5, 5.0, 7.5, and 10.0 mgs/kg soil. The potted soil was kept moist in a greenhouse for 10 days when preplant samples were collected for analysis, and the pots were planted with ‘Brim’ soybean [Glycine max]. After 7 weeks of growth, the plants were removed and final soil samples taken. Data was collected on weights of fresh roots and shoots, root galling by Ma, and numbers of nematodes in soil and roots. All rates of C2 and C8 were ineffective in reducing Ma juvenile [J2] populations in the preplant samples. This was also true for C2 and J2 populations of Hg; however, C8 rates ≧5.0 mg suppressed J2 populations of Hg. […] Hg J2 numbers in final soil samples were generally inversely related to rates for C3-C8. This pattern of suppression in J2 numbers was also applicable to Ma in the final soil samples but only for C3-C6. […] Applications of C3-C6 to soil increased shoot weights in a manner directly related to dosages but non-linear in pattern.
# [7] = test system: Heterodera glycines; test: as above; assay type: in vivo; conditions: rates ≧5.0 mg
# Protocol: as §5, §6
# [8] = test system: Cowpea weevil, Callosobruchus maculatus (F.); test: Fumigant toxicity, Cowpea weevil; assay type: in vivo; design: concentration or dose not given beside the values; conditions: 30 adults
# Protocol: as §2
# [9] = test system: cyst [Heterodera glycines]; test: Greenhouse nematicide test, iodinated C1-C3 hydrocarbons (Experiment 4); assay type: in vivo
# Protocol: (§7) In this experiment, the nematicidal properties of low molecular weight iodinated hydrocarbons were investigated. The nematicidal properties of iodinated C1-C3 hydrocarbons were evaluated in greenhouse experiments with field soil infested with root-knot [Meloidogyne arenaria] and cyst [Heterodera glycines] nematodes. lodomethane, di-iodomethane, iodoethane, di-iodoethane, and 1-iodopropane were added to soil at rates of 0.1, 0.2 and 0.4 ml/kg soil.
# (§8) The treated soil was kept moist for 10 days when soil samples were taken for nematode analysis and ‘Brim’ soybean [Glycine max] planted. Soybeans were allowed to grow for 8 weeks and then were removed from the soil to determine plant growth, root-knot indices and the number of galls generated by M arenaria. […] All compounds except 1-iodopropane increased fresh shoot weight when applied at ≧0.1 ml/kg soil.
# [10] = test system: American (Periplaneta americana) and German (Blattella germanica) cockroaches; test: Knockdown and mortality of cockroaches in sealed jar (both species); assay type: in vivo; conditions: 50 μl on cotton ball in sealed 0.95-liter jar; for Knockdown of cockroaches: within 1 hour after treatment
# Protocol: as §3, with “sealed.” for “sealed. Knockdown, defined as the inability to walk in a coordinated manner, and mortality were assessed every 15 minutes for the first hour and hourly thereafter for 8 hours and again after 24 hours.”
# [11] = test system: root-knot [Meloidogyne arenaria]; test: Greenhouse nematicide test, iodinated C1-C3 hydrocarbons (Experiment 4); assay type: in vivo
# Protocol: as §7, §8
# [12] = test system: Meloidogyne arenaria; test: Greenhouse nematicide test, iodomethane vs ethylene diiodide (Experiment 5); assay type: in vivo
# Protocol: (§9) In this experiment, the nematotoxic properties of ethylene diiodide were compared to that of methyl iodide. The nematicidal efficacies of iodomethane [IM] and ethylene diiodide [EDI] were compared in a greenhouse experiment using field soil infested with Meloidogyne arenaria, Pratylenchus brachyurus, and Paratrichodorus christiei.
# (§10) Each compound was added to soil at rates of 100, 200, 300 and 400 mg s/kg of soil. The soil was potted and kept moist for two weeks when it was planted with ‘Brim’ soybean after taking samples for nematological analyses. After eight weeks of growth, the plants were removed from the pots and soil samples taken. Data was collected on weights of fresh roots and shoots, general appearance of roots [root condition index] and root gall formation by M. arenaria. All EDI rates eliminated M. arenaria juveniles [J2] and populations of the other nematodes in the preplant samples; IM reduced J2 numbers by 50-70%, eliminated P. christiei with the 400 mg rate, but had no effect on P. brachyurus. […] The general appearance of roots was improved by EDI at rates ≦300 mg, but MI had no effect on the variable. […] M. arenaria J2 populations in roots were reduced by 60-70% by MI treatments, but the compound had no effect on root populations of P. brachyurus. MI had no effect on J2 populations in the final soil samples, although it suppressed P. christiei, by 50-70%.
# [13] = test system: Pratylenchus brachyurus; test: as above; assay type: in vivo
# Protocol: as §9, §10
# [14] = test system: Paratrichodorus christiei; test: as above; assay type: in vivo
# Protocol: as §9, §10
# [15] = test system: 'Brim' soybean; test: Soybean growth and root condition in treated soil (Experiment 5); assay type: in vivo; conditions: rates 100-400 mg/kg
# Protocol: as §9, §10
# [16] = 1 h exposure, read-out: % Mortality after 1 h exposure, German cockroach
# [17] = 24 h exposure, read-out: % Mortality after 24 h exposure, German cockroach
# [18] = 1 h exposure, read-out: % Mortality after 1 h exposure, American cockroach
# [19] = 24 h exposure, read-out: % Mortality after 24 h exposure, American cockroach
compound,measurement,setting,value
"ICCCCI [1,4-diiodobutane]",mortality at 50 µL/jar,[1]; [16],0%
same,mortality at 50 µL/jar,[1]; [17],70%
same,mortality at 50 µL/jar,[2]; [18],0%
same,mortality at 50 µL/jar,[2]; [19],33%
same,Number of weeds found in the pots as the dosage is increased (FIG. 6),[3],steady decline
same,Repellency to German cockroaches,[4],repellent
same,"Nematode in soil, covered pots","[5]; covered pots, all dosages (2-12 mgs a.i./Kg soil)",eliminated
same,Dose that eliminates the nematodes,[5]; uncovered and covered state,about 10 mg per kg of soil
same,Mortality of the nematode,"[5]; uncovered pots, 3 highest rates",100%
same,M. arenaria J2 populations in preplant samples,[6],virtually eliminated
same,H. glycines J2 populations in preplant samples,[7],virtually eliminated
same,"% Mortality after 24 h exposure, Cowpea weevil",[8],47%
ICI [diiodomethane],H. glycines J2 populations in soil,"[9]; 10 days after application, all dosages (0.1, 0.2, 0.4 ml/kg soil)",eliminated
same,Time to 100 percent mortality of cockroaches,[10],≤ 4 h
same,Knockdown of cockroaches,[10],≈ 40%
same,mortality at 50 µL/jar,[1]; [16],40%
same,mortality at 50 µL/jar,[1]; [17],100%
same,mortality at 50 µL/jar,[2]; [18],39%
same,mortality at 50 µL/jar,[2]; [19],100%
same,Repellency to German cockroaches,[4],repellent
same,"% Mortality after 24 h exposure, Cowpea weevil",[8],100%
"CI [iodomethane, reference compound]",Root-knot nematode juveniles in soil,[11]; 0.4 ml rate,eliminated
same,Gall formation by M. arenaria,[11]; applied at ≧0.2 ml/kg soil,Significant suppression
same,Root-knot nematode juveniles in soil,[11]; rates lower than 0.4 ml,ineffective
same,H. glycines J2 populations in soil,[9]; 0.4 ml rate,reduced
same,H. glycines J2 populations in soil,[9]; rates lower than 0.4 ml,ineffective
same,Knockdown of cockroaches,[10],100%
same,mortality at 50 µL/jar,[1]; [16],100%
same,mortality at 50 µL/jar,[1]; [17],100%
same,mortality at 50 µL/jar,[2]; [18],100%
same,mortality at 50 µL/jar,[2]; [19],100%
same,Reduction of M. arenaria J2 populations in roots,[12]; after eight weeks of growth,60-70%
same,J2 populations in the final soil samples,[12]; final soil samples,no effect
same,Reduction of M. arenaria J2 numbers in preplant samples,[12]; rates 100-400 mg/kg of soil,50-70%
same,Galls in roots of plants from treated soil (M. arenaria),[12]; soybean after eight weeks,significant numbers
same,Root populations of P. brachyurus,[13]; after eight weeks of growth,no effect
same,P. brachyurus populations in preplant samples,[13]; rates 100-400 mg/kg of soil,no effect
same,P. christiei populations in preplant samples,[14]; 400 mg rate,eliminated
same,Suppression of P. christiei in final soil samples,[14]; final soil samples,50-70%
same,Control of the nematode in soil,[5]; listed as C1,failed to control
same,Control of the nematode in soil,[5]; listed as methyl iodide,ineffective
same,General appearance of roots [root condition index],[15],no effect
same,"% Mortality after 24 h exposure, Cowpea weevil",[8],100%
